Results reported in ChEMBL document CHEMBL1201862, “PubChem BioAssay data set” (2004).
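Growth conditions: 96-well plates. Treatment: test compound, 48 hours, 5 concentrations. Analysis: linear interpolation between bracketing concentrations; unreached endpoints set to highest concentration. The concentration for 50% growth inhibition is given as GI50.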 The source made the active and inactive calls. No stated cut-off is given here; in the data, active = GI50 up to about 1.1 µM and inactive = higher.

Columns and labels:
Experiment in all cases: inhibition of tumour cell growth, NCI panel, 48 h
[1] = tested on: 786-0
[2] = tested on: A498
[3] = tested on: A549
[4] = tested on: ACHN
[5] = tested on: BT-549
[6] = tested on: CAKI-1
[7] = tested on: CCRF-CEM
[8] = tested on: COLO 205
[9] = tested on: DU-145
[10] = tested on: EKVX
[11] = tested on: HCC 2998
[12] = tested on: HCT-116
[13] = tested on: HCT-15
[14] = tested on: HL-60
[15] = tested on: HOP-62
[16] = tested on: HOP-92
[17] = tested on: HT-29
[18] = tested on: Hs-578T
[19] = tested on: IGROV-1
[20] = tested on: K562
[21] = tested on: KM12
[22] = tested on: LOX IMVI
[23] = tested on: M14
[24] = tested on: MCF7
[25] = tested on: MDA-MB-231
[26] = tested on: MDA-MB-435
[27] = tested on: MDA-N
[28] = tested on: MOLT-4
[29] = tested on: Malme-3M
[30] = tested on: NCI-H23
[31] = tested on: NCI-H460
[32] = tested on: NCI-H522
[33] = tested on: NCI/ADR-RES
[34] = tested on: OVCAR-3
[35] = tested on: OVCAR-4
[36] = tested on: OVCAR-5
[37] = tested on: OVCAR-8
[38] = tested on: PC-3
[39] = tested on: RPMI-8226
[40] = tested on: RXF 393
[41] = tested on: SF-268
[42] = tested on: SF-295
[43] = tested on: SF-539
[44] = tested on: SK-MEL-28
[45] = tested on: SK-MEL-2
[46] = tested on: SK-MEL-5
[47] = tested on: SK-OV-3
[48] = tested on: SN12C
[49] = tested on: SNB-19
[50] = tested on: SNB-75
[51] = tested on: SR
[52] = tested on: SW-620
[53] = tested on: T47D
[54] = tested on: TK-10
[55] = tested on: U-251
[56] = tested on: UACC-257
[57] = tested on: UACC-62
[58] = tested on: UO-31

Measured: GI50

C/C(=N\NC(=S)NCCNC(=S)N/N=C(\C)c1ccccn1)c1ccccn1
1840 nM: [13]
inactive: [1] 1260 nM | [2] 4440 nM | [3] 3210 nM | [4] 1260 nM | [5] 2360 nM | [6] 3420 nM | [7] 1280 nM | [8] 2090 nM | [9] 2320 nM | [10] 4830 nM | [11] 7280 nM | [12] 2750 nM | [15] 1830 nM | [16] 3910 nM | [17] 2070 nM | [18] > 73100 nM | [19] 2070 nM | [20] 3170 nM | [21] 3870 nM | [22] 1890 nM | [23] 1500 nM | [24] 4390 nM | [25] > 20900 nM | [26] 3910 nM | [27] 4510 nM | [28] 2150 nM | [29] 2540 nM | [30] 4410 nM | [31] 1610 nM | [32] 6040 nM | [33] 1920 nM | [34] 2740 nM | [35] 2900 nM | [36] 3980 nM | [37] 1560 nM | [38] 3070 nM | [39] 1700 nM | [40] 3160 nM | [41] 1900 nM | [42] 3450 nM | [43] 2360 nM | [44] 4750 nM | [45] 1820 nM | [46] 1740 nM | [47] 4700 nM | [48] 1940 nM | [49] 9460 nM | [50] 1730 nM | [52] 5040 nM | [53] 4430 nM | [55] 2430 nM | [56] 2610 nM | [57] 2620 nM | [58] 1430 nM
active: [14] 789 nM | [51] 514 nM | [54] 1040 nM
